This is an account of results in patent publication US20180298010A1, “PRMT5 INHIBITORS AND USES THEREOF” (Epizyme, Inc., priority 2012, published 2018).

A word on the IC50: it is the concentration needed to halve the response being measured.

T1 sequence (O14744 with tags, fused parts or gaps): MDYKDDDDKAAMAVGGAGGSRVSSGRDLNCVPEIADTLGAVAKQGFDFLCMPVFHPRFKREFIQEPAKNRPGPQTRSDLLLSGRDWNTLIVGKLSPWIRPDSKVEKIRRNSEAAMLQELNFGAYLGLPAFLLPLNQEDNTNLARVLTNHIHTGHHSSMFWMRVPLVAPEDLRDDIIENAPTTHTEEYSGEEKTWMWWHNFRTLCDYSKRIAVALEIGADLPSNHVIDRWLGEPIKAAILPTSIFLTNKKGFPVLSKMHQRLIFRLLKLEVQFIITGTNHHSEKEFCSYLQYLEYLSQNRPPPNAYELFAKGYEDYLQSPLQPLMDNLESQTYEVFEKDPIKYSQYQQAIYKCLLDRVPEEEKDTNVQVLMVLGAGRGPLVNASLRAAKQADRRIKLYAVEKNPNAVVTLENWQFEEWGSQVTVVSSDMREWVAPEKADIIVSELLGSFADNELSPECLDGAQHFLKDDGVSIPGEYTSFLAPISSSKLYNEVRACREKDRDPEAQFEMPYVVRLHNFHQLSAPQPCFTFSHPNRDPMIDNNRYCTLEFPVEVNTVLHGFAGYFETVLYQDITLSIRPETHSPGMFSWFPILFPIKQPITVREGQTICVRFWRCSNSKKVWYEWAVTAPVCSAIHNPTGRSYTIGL
T1 sequence (Q9BQA1 with tags, fused parts or gaps partner): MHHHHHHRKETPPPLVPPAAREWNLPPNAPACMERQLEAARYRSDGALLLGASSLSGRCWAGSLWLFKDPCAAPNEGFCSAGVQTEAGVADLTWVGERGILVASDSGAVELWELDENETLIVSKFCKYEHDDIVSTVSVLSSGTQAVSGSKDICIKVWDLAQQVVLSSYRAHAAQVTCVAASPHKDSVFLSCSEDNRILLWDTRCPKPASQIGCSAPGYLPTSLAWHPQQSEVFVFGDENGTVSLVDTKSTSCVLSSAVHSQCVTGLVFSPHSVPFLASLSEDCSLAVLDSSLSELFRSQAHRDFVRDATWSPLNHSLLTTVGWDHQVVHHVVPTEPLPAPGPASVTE

The assay has as its target T1, PRMT5/MEP50 (Homo sapiens, UniProt O14744).
T1 construct: Flag-PRMT5; 6His-MEP50
The assay can be described thus: PRMT5 Biochemical Assay (PRMT5/MEP50 enzyme assay on peptide substrate, 3H-SAM Flashplate). Summed up:
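FLAG-PRMT5/His-MEP50 from Sf9 cells (4 nM) preincubated 30 min at 25 °C with compound in 20 mM Bicine pH 7.6, 1 mM TCEP, 1% DMSO. Reaction started with 75 nM 3H-SAM on 40 nM biotinylated H4 1-15 peptide, stopped with cold SAM. Bound 3H-peptide counted on streptavidin Flashplates, normalised to DMSO and 100 uM SAH controls.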
Regarding `O=C(c1cccc(-c2cccc(OCC(O)CN3CCc4ccccc4C3)c2)c1)N1CCCC1` (stereo not shown) [Compound 185], the IC50 lay in the range of 101 to 1000 nM. As for `CNC(=O)c1cccc(-c2cccc(OCC(O)CN3CCc4ccccc4C3)c2)c1` (stereo not shown) [Compound 186], the figure is 101 to 1000 nM; as for `Cc1cn(C)c2cc(-c3cccc(OCC(O)CN4CCc5ccccc5C4)c3)ccc12` (stereo not shown) [Compound 187], 101 to 1000 nM; as for `OC(COc1cccc(-c2ccc3ncoc3c2)c1)CN1CCc2ccccc2C1` (stereo not shown) [Compound 188], 101 to 1000 nM. As for `OC(COc1cccc(-c2ccncc2F)c1)CN1CCc2ccccc2C1` (stereo not shown) [Compound 190], the figure is 1000 to 10000 nM. Take `Cn1cnc2cnc(-c3cccc(OCC(O)CN4CCc5ccccc5C4)c3)nc21` (stereo not shown) [Compound 191]: the IC50 lay in the range of 101 to 1000 nM. On to `Cc1cccc2c1CN(CC(O)COc1cccc(-c3ccc4ncn(C)c4c3)c1)CC2` (stereo not shown) [Compound 192], for which the IC50 lay within 1000 to 10000 nM. Under `OC(COc1cccc(N2CCc3[nH]nc(-c4ccccc4)c3C2)c1)CN1CCc2ccccc2C1` (stereo not shown) [Compound 194] stands 1000 to 10000 nM; under `Cn1cncc1C(=O)Nc1cccc(OCC(O)CN2CCc3ccccc3C2)c1` (stereo not shown) [Compound 195], 1000 to 10000 nM. As to `CN(C(=O)c1cnco1)c1cccc(OCC(O)CN2CCc3ccccc3C2)c1` (stereo not shown) [Compound 196], the IC50 fell in the range of 1000 to 10000 nM.

Turning to `CN(C(=O)c1cn(C)cn1)c1cccc(OCC(O)CN2CCc3ccccc3C2)c1` (stereo not shown) [Compound 197], the IC50 lay in the range of 1000 to 10000 nM.

As for `CN(C(=O)c1cocn1)c1cccc(OCC(O)CN2CCc3ccccc3C2)c1` (stereo not shown) [Compound 198], the IC50 is 10000 to 40000 nM.

Turning to `OC(COc1cccc(-c2cc(OC(F)(F)F)ccc2Cl)c1)CN1CCc2ccccc2C1` (stereo not shown) [Compound 200], the IC50 was 101 to 1000 nM. Under `CC(C)Oc1ccc(F)c(-c2cccc(OCC(O)CN3CCc4ccccc4C3)c2)c1` (stereo not shown) [Compound 201] stands 101 to 1000 nM; under `CN(C(=O)c1cncn1C)c1cccc(OCC(O)CN2CCc3ccccc3C2)c1` (stereo not shown) [Compound 203], 1000 to 10000 nM; under `CN(C(=O)c1cccnc1)c1cccc(OCC(O)CN2CCc3ccccc3C2)c1` (stereo not shown) [Compound 204], 1000 to 10000 nM. Under `Cn1ncc2ccc(-c3cc(NCC(O)CN4CCc5ccccc5C4)ncn3)cc21` (stereo not shown) [Compound 205] stands 101 to 1000 nM. As for `CNC(=O)Cn1ccc2cnc(-c3cccc(OCC(O)CN4CCc5ccccc5C4)c3)nc21` (stereo not shown) [Compound 206], the figure is 1000 to 10000 nM; as for `Cn1cnc2ccc(-c3cc(NCC(O)CN4CCc5ccccc5C4)ncn3)cc21` (stereo not shown) [Compound 207], 101 to 1000 nM; as for `Cn1cnc2ccc(-c3cccc(OCC(O)CN4CCc5ccccc5C4(C)C)c3)cc21` (stereo not shown) [Compound 211], 1000 to 10000 nM.

Consider `Cc1ccc2c(c1)CN(CC(O)COc1cccc(-c3ccc4ncn(C)c4c3)c1)CC2` (stereo not shown) [Compound 212], for which the IC50 was 1000 to 10000 nM.

For the molecule `Cc1cccc2c1CCN(CC(O)COc1cccc(-c3ccc4ncn(C)c4c3)c1)C2` (stereo not shown) [Compound 213], the IC50 fell in the range of 1000 to 10000 nM. As for `Cn1cnc2ccc(-c3cccc(OCC(O)CN4CCc5ccc(Cl)cc5C4)c3)cc21` (stereo not shown) [Compound 214], the figure is 1000 to 10000 nM. As for `Cn1cnc2ccc(-c3cccc(OCC(O)CN4CCc5c(Cl)cccc5C4)c3)cc21` (stereo not shown) [Compound 215], the figure is 1000 to 10000 nM; as for `Cn1ncc2c1CN(c1cccc(OCC(O)CN3CCc4ccccc4C3)c1)CC2` (stereo not shown) [Compound 216, 1-(3,4-dihydroisoquinolin-2(1H)-yl)-3-(3-(1-methyl-4,5-dihydro-1H-pyrazolo[3,4-c]pyridin-6(7H)-yl)phenoxy)propan-2-ol], 101 to 1000 nM; as for `Cn1cnc2ccc(-c3cc(NCC(O)CN4CCc5ccccc5C4)ccn3)cc21` (stereo not shown) [Compound 217], 101 to 1000 nM. In the case of `O=C(Cn1ccc2cnc(-c3cccc(OCC(O)CN4CCc5ccccc5C4)c3)nc21)N1CCOCC1` (stereo not shown) [Compound 222], the IC50 fell in the range of 101 to 1000 nM. As for `Cn1cc2ccc(-c3cc(NCC(O)CN4CCc5ccccc5C4)ncn3)cc2n1` (stereo not shown) [Compound 224], the figure is 101 to 1000 nM; as for `CC(=O)N1CCC(n2cnc3ccc(-c4cccc(OCC(O)CN5CCc6ccccc6C5)c4)cc32)CC1` (stereo not shown) [Compound 228, 1-(4-(6-(3-(3-(3,4-dihydroisoquinolin-2(1H)-yl)-2-hydroxypropoxy)phenyl)-1H-benzo[d]imidazol-1-yl)piperidin-1-yl)ethanone], 101 to 1000 nM. As for `O=C(Cn1ccc2cnc(-c3cccc(OCC(O)CN4CCc5ccccc5C4)c3)nc21)N1CCCC1` (stereo not shown) [Compound 231], the IC50 is 101 to 1000 nM. As for `O=C(Cn1ccc2cnc(-c3cccc(OCC(O)CN4CCc5ccccc5C4)c3)nc21)N1CCCCC1` (stereo not shown) [Compound 232], the figure is 101 to 1000 nM.

As to `Cn1ccc2ccc(-c3cc(NCC(O)CN4CCc5ccccc5C4)ncn3)cc21` (stereo not shown) [Compound 237], the IC50 lay in the range of 101 to 1000 nM.

As to `CC(=O)N1CCC(n2cnc3ccc(-c4ccnc(NCC(O)CN5CCc6ccccc6C5)c4)cc32)CC1` (stereo not shown) [Compound 242], the IC50 lay within 101 to 1000 nM. As for `CC(=O)N1CCC(n2cnc3cnc(-c4cccc(OCC(O)CN5CCc6ccccc6C5)c4)nc32)CC1` (stereo not shown) [Compound 243], the figure is 101 to 1000 nM; as for `CN1CCN(C(=O)Cn2ccc3cnc(-c4cccc(OCC(O)CN5CCc6ccccc6C5)c4)nc32)CC1` (stereo not shown) [Compound 244], 101 to 1000 nM; as for `Cn1ncc2cnc(-c3cccc(OCC(O)CN4CCc5ccccc5C4)c3)cc21` (stereo not shown) [Compound 248, 1-(3,4-dihydroisoquinolin-2(1H)-yl)-3-(3-(1-methyl-1H-pyrazolo[4,3-c]pyridin-6-yl)phenoxy)propan-2-ol], 101 to 1000 nM. On to `O=C(Cn1cnc2ccc(-c3cccc(OCC(O)CN4CCc5ccccc5C4)c3)cc21)N1CCCCC1` (stereo not shown) [Compound 249], for which the IC50 was in the range of 101 to 1000 nM. Under `O=C(Cn1cnc2ccc(-c3cccc(OCC(O)CN4CCc5ccccc5C4)c3)cc21)N1CCCC1` (stereo not shown) [Compound 263] stands 101 to 1000 nM; under `O=C(Nc1ccccn1)c1cccc(OCC(O)CN2CCc3ccccc3C2)c1` (stereo not shown) [Compound 267], 101 to 1000 nM; under `O=C(Nc1cccnc1)c1cccc(OCC(O)CN2CCc3ccccc3C2)c1` (stereo not shown) [Compound 268], 1000 to 10000 nM.

In the case of `CN1CCN(C(=O)Cn2cnc3ccc(-c4cccc(OCC(O)CN5CCc6ccccc6C5)c4)cc32)CC1` (stereo not shown) [Compound 270], the IC50 was 101 to 1000 nM. As for `Cn1cnc2ccc(-c3cc(NCC(O)CN4CCc5ccccc5C4)n[nH]3)cc21` (stereo not shown) [Compound 271, 1-(3,4-dihydroisoquinolin-2(1H)-yl)-3-((5-(1-methyl-1H-benzo[d]imidazol-6-yl)-1H-pyrazol-3-yl)amino)propan-2-ol], the figure is 101 to 1000 nM. Under `Cn1cnc2cc(-c3cc(NCC(O)CN4CCc5ccccc5C4)n[nH]3)ccc21` (stereo not shown) [Compound 272, 1-(3,4-dihydroisoquinolin-2(1H)-yl)-3-((5-(1-methyl-1H-benzo[d]imidazol-5-yl)-1H-pyrazol-3-yl)amino)propan-2-ol] stands 101 to 1000 nM; under `O=C(Nc1cc[nH]n1)c1cccc(OCC(O)CN2CCc3ccccc3C2)c1` (stereo not shown) [Compound 274], 1000 to 10000 nM. As for `COc1c(COCC(O)CN2CCc3ccccc3C2)ccc2ccccc12` (stereo not shown) [Compound 279], the figure is 1000 to 10000 nM; as for `OC(COCc1c(Cl)cccc1Cl)CN1CCc2ccccc2C1` (stereo not shown) [Compound 280], 1000 to 10000 nM. For `OC(COCc1ccc(Cl)cc1Cl)CN1CCc2ccccc2C1` (stereo not shown) [Compound 281], the IC50 lay within 1000 to 10000 nM. Under `OC(COCc1ccccn1)CN1CCc2ccccc2C1` (stereo not shown) [Compound 282] stands 10000 to 40000 nM; under `OC(COCc1cccnc1)CN1CCc2ccccc2C1` (stereo not shown) [Compound 283], 10000 to 40000 nM; under `OC(COCc1ccncc1)CN1CCc2ccccc2C1` (stereo not shown) [Compound 284], 10000 to 40000 nM. As for `OC(COc1ccc2c(c1)OCO2)CN1CCc2ccccc2C1` (stereo not shown) [Compound 285], the figure is 1000 to 10000 nM. As for `CCCCNCc1cccc(COCC(O)CN2CCc3ccccc3C2)c1` (stereo not shown) [Compound 286], the figure is 101 to 1000 nM; as for `CC(C)(C)OC(=O)N1CCC(OCC(O)CN2CCc3ccccc3C2)C1` (stereo not shown) [Compound 287], 1000 to 10000 nM. For `COc1cccc(COCC(O)CN2CCc3ccccc3C2)c1` (stereo not shown) [Compound 288], the IC50 lay in the range of 1000 to 10000 nM. As for `CC(C)(C)OC(=O)N1CC(OCC(O)CN2CCc3ccccc3C2)C1` (stereo not shown) [Compound 290], the figure is 1000 to 10000 nM; as for `CC(C)(C)OC(=O)N1CCCC(OCC(O)CN2CCc3ccccc3C2)C1` (stereo not shown) [Compound 291], 1000 to 10000 nM; as for `CC(C)(C)OC(=O)N1CCC(OCC(O)CN2CCc3ccccc3C2)CC1` (stereo not shown) [Compound 292], 1000 to 10000 nM.

Take `OC(COCC1CCCCC1)CN1CCc2ccccc2C1` (stereo not shown) [Compound 294]: the IC50 is 1000 to 10000 nM. Under `CC(OCC(O)CN1CCc2ccccc2C1)c1cccnc1` (stereo not shown) [Compound 299] stands 10000 to 40000 nM. With `OC(COCC1COc2ccccc2O1)CN1CCc2ccccc2C1` (stereo not shown) [Compound 300], the IC50 was 101 to 1000 nM. Under `OC(COC1Cc2ccccc2C1)CN1CCc2ccccc2C1` (stereo not shown) [Compound 301] stands 1000 to 10000 nM. As for `OC(COC1CCCC1)CN1CCc2ccccc2C1` (stereo not shown) [Compound 302], the figure is 1000 to 10000 nM; as for `OC(COCC1CC1)CN1CCc2ccccc2C1` (stereo not shown) [Compound 303], 1000 to 10000 nM. As for `OC(COCC1CCCO1)CN1CCc2ccccc2C1` (stereo not shown) [Compound 305], the figure is 10000 to 40000 nM; as for `OC(COCc1ccccc1)CN1CCc2ccccc2C1` (stereo not shown) [Compound 308], 10000 to 40000 nM; as for `OC(COC1CCCCCC1)CN1CCc2ccccc2C1` (stereo not shown) [Compound 309], 1000 to 10000 nM. Take `OC(COC1CCOCC1)CN1CCc2ccccc2C1` (stereo not shown) [Compound 310]: the IC50 is 10000 to 40000 nM. Under `CC(=O)N1CC(Nc2cc(CNCC(O)CN3CCc4ccccc4C3)ncn2)C1` (stereo not shown) [Compound 311] stands > 10000 nM. Under `CC(=O)N1CCC(Nc2cc(CNCC(O)CN3CCc4ccccc4C3)ncn2)CC1` (stereo not shown) [Compound 312] stands > 10000 nM; under `CC(=O)N1CCC(Nc2cc(CNCC(O)CN3CCc4ccccc4C3)ccn2)CC1` (stereo not shown) [Compound 313], > 10000 nM.
